From US20260215420A1 (Solasta Bio Limited, priority 2022, published 2026)
Each block holds one compound with its values, some of them ahead of it.

What was measured:
[1] = system: Myzus persicae; assay: Leaf dip assay for aphids; assay type: in vivo; conditions: unformulated peptide, compared to vehicle and Spirotetramat, up to 120 hours
Experimental: Leaf Dip Assay—Aphids or Plutella xylostella Based on IRAC susceptibility test method 019 (https://irac-online.org/methods/aphids-adultnymphs/). Fill a small 4 cm wide 3 cm high dish with a 1% agar solution (ensuring 1 cm gap between the agar and the lid) and leave to set. Dip a 2.5 cm leaf disc into 3 ml of treatment solution allowing the treatment to coat the leaf. Leave the disc to dry for 1 hour and place onto the set agar. Place insects (aphids or Plutella xylostella) onto each of the leaf discs. Each unit is sealed with a close-fitting, ventilated lid. Place the agar dishes in a small plastic tray lined with moist tissue paper and ensure the water trays in the bottom of the incubator are filled with clean water and place within the incubator. An assessment of mortality is made at 72, 96 and 120 hours. Leaf dip assays for aphids were performed with SB-P-65, and compared to a negative control vehicle and a current commercial insecticide Spirotetramat. The activity of SB-P-65 is shown in FIGS. 20 and 21; SB-P-65 has good activity whilst being eco-friendly and targeted to specific pests unlike broad spectrum chemical insecticides such as Spirotetramat. Leaf dip assays for aphids were performed with SB-P-66, and compared to a negative control vehicle and a current commercial insecticide Spirotetramat. […]

[2] = gut and MT tissue and contents of final-stage P. xylostella larvae in Schneider's medium; conditions: Plutella xylostella, 25° C., up to 24 h
[3] = system: Spodoptera frugiperda; assay: Lepidoptera mortality assay (artificial diet); assay type: in vivo; conditions: 1×10^−4 M in artificial diet, L1 larvae, 168 hrs, compared to vehicle and DDT
Source text: Lepidoptera Mortality Assay Against Spodoptera frugiperda Frontier Lepidoptera Artificial diet was made up by preparing agar at 1% and then mixing it with artificial diet powder. Peptide solution was aliquoted in 10 cells and diet poured straight onto it. The final concentration of the peptide was 1×10^−4 M, and each peptide was aliquoted in 10 cells. Once the diet solidified and cooled down, one L1 larvae was infested in each cell. The trays were sealed with heat and let larva were allowed to develop for 168 hrs. Finally, pupation and mortality were scored for. Lepidoptera mortality assays were performed with SB-P-70, and compared to a negative control vehicle and the insecticide dichlorodiphenyltrichloroethane (DDT). The activity of SB-P-70 is shown in FIG. 32; SB-P-70 has good activity whilst being eco-friendly and targeted to specific pests unlike broad spectrum chemical insecticides such as DDT.

[4] = system: Plutella xylostella; assay: Leaf dip assay for Plutella xylostella; assay type: in vivo; conditions: unformulated peptide, compared to vehicle and Chlorantraniliprole
Experimental: Leaf Dip Assay—Aphids or Plutella xylostella Based on IRAC susceptibility test method 019 (https://irac-online.org/methods/aphids-adultnymphs/). Fill a small 4 cm wide 3 cm high dish with a 1% agar solution (ensuring 1 cm gap between the agar and the lid) and leave to set. Dip a 2.5 cm leaf disc into 3 ml of treatment solution allowing the treatment to coat the leaf. Leave the disc to dry for 1 hour and place onto the set agar. Place insects (aphids or Plutella xylostella) onto each of the leaf discs. Each unit is sealed with a close-fitting, ventilated lid. Place the agar dishes in a small plastic tray lined with moist tissue paper and ensure the water trays in the bottom of the incubator are filled with clean water and place within the incubator. An assessment of mortality is made at 72, 96 and 120 hours. Leaf dip assays for Plutella xylostella were performed with SB-P-70, and compared to a negative control vehicle and a current commercial insecticide Chlorantraniliprole. The activity of SB-P-70 is shown in FIG. 6; SB-P-70 has good activity whilst being eco-friendly and targeted to specific pests unlike broad spectrum chemical insecticides such as Chlorantraniliprole

[5] = assay type: in vitro ADME, Plutella xylostella
Experimental: Plutella xylostella Tissue Biostability Study of SB-P-70 and SB-P-103
SB-P-70 and SB-P-103 were incubated with the gut and MT tissue and contents of final-stage P. xylostella larvae in Schneider's medium at 25° C. Control samples were prepared with peptides in Schneider's medium with no tissue and tissue in Schneider's medium with no peptides. The condition of the peptides after incubation with the tissue was assessed by LC-MS at: 4 h; 8 h; 16 h; and 24 h time points (FIGS. 13 and 14).
In contrast, SB-P-103 remained 44% intact after 24 h tissue incubation.

Compound: H-PAFSSWG-NH2 [SB-P-66, Hy-PAFSSWG-[NH2]]
activity against Myzus persicae (mortality) [1]: good activity

cleaved bond [2]: Ser5-Ala6, major
Compound: H-KVKFSAWG-NH2

condition of the peptide after incubation with the tissue [5]: completely degraded
site of proteolytic cleavage [5]: between Ser5 and Ala6
Compound: H-KVKFSAWG-NH2 [SB-P-70, Hy-KVKFSAWG-[NH2]]
activity against Spodoptera frugiperda (pupation and mortality) [3]: good activity
activity against Plutella xylostella (mortality) [4]: good activity

Compound: CC(C)[C@H](NC(=O)C(NC(=O)[C@H](CCCCN)NC(=O)[C@H](CCC(N)=O)NC(=O)[C@@H](N)CCCNC(=N)N)[C@@H](C)O)C(=O)N[C@@H](Cc1ccccc1)C(=O)N[C@@H](CO)C(=O)N[C@@H](CO)C(=O)N[C@@H](Cc1c[nH]c2ccccc12)C(=O)NCC(N)=O (stereo partly shown) [SB-P-65, Hy-RQKTVFSSWG-[NH2]]
activity against Myzus persicae (mortality) [1]: good activity
